Results taken from PMC7997369, “Assessment of the Multifunctional Behavior of Lupin Peptide P7 and Its Metabolite Using an Integrated Strategy” (Journal of Agricultural and Food Chemistry, 2020).
No end group written: not given here.

Key:
[1] = target: T1, HMGCoAR (catalytic domain) (Homo sapiens, UniProt P04035); assay: In vitro HMGCoAR inhibitory activity assay; type: biochemical; settings: 37 °C, NADPH absorbance at 340 nm, mean ± sd of three independent experiments in triplicate
T1 construct: finally the HMGCoAR (catalytic domain) (2 µL); purchased Sigma
T1 sequence (P04035 426-888 limits assumed): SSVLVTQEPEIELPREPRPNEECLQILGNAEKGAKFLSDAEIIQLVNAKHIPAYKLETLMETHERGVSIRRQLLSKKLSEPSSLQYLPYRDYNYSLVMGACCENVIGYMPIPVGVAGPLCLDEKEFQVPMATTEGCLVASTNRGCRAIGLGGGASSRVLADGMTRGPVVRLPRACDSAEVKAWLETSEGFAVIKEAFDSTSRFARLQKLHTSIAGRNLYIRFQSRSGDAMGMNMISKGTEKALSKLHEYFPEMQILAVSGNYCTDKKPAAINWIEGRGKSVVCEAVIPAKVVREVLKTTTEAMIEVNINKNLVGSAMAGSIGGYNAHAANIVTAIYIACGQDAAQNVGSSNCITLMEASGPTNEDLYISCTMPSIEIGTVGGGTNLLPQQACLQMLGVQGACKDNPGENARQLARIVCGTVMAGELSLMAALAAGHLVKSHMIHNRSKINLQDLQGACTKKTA
Experimental: The assay buffer, NADPH, substrate solution, and HMGCoAR were provided in the HMGCoAR assay kit (Sigma). The experiments were carried out testing LTFPG at 100 and 250 μM at 37 °C in agreement with the conditions previously reported.[8] For further details, see the Supporting Information.
The assay buffer, NADPH, substrate solution, and HMGCoAR were provided in the HMGCoAR Assay Kit (Sigma). The experiments were carried out following the manufacturer’s instructions at 37 °C. In particular, each reaction (200 µL) was prepared adding the reagents in the following order: 1 X assay buffer, LTFPG (100.0 and 250.0 µM) or vehicle (C), the NADPH (4 µL), the substrate solution (12 µL), and finally the HMGCoAR (catalytic domain) (2 µL). Subsequently, the samples were mixed and the absorbance at 340 nm read by a microplate reader Synergy H1 from Biotek at time 0 and 10 min. The HMGCoAR-dependent oxidation of NADPH and the inhibition properties of lupin peptides were measured by absorbance reduction, which is directly proportional to enzyme […]
In vitro ACE-inhibitory assay […]
The evaluation of the inhibition of ACE activity was based on the comparison between the concentrations of HA in the presence or absence of the inhibitor (Inhibitor Blank). The phenomenon of autolysis of HHL to give HA was evaluated by a reaction blank, i.e. a sample with the higher

[2] = target: T2, angiotensin-converting enzyme (ACE) (Homo sapiens, UniProt P12821); assay: Cellular ACE inhibitory assay in undifferentiated intestinal Caco-2 cells; type: cell-based; parameters: endogenous in cells; host or cells: Caco-2 cells (INSERM, Paris); settings: Caco-2 cells treated 24 h at 37 °C with P7 0.1–250 μM; ACE activity in cell lysates, fluorescent Abz substrate; mean ± sd of three independent experiments in triplicate
Experimental: (§1) HK-2 cells from the American Type Culture Collection (ATCC) were cultured using Dulbecco’s modified Eagle’s medium–F12 (DMEM–F12) containing 25 mM glucose, 4 mM stable L-glutamine, 100 units […] penicillin, and 100 μg […] streptomycin, supplemented with 10% heat-inactivated fetal bovine serum (FBS, Hyclone Laboratories, Logan, UT, U.S.A.). […]
(§2) For the experiments, HK-2 and Caco-2 cells were seeded on 96-well plates at a density of 5 × 10^4 cells/well for 24 h. […] Total proteins were quantified by the Bradford method, and 2 μL of the supernatant (the equivalent of 2 μg of total proteins) was added to 18 μL of ACE1 lysis buffer in each well in a black 96-well plate with a clear bottom. […] Then, 20 μL of diluted ACE1 substrate [o-aminobenzoyl peptide (Abz-based peptide) substrate, 4% of ACE1 substrate in the assay buffer] was added in each well, except the background well, and the fluorescence (excitation/emission of 330/430 nm) was measured in a kinetic mode for 10 min at 37 °C.

[3] = target: T2, angiotensin-converting enzyme (ACE); assay: Cellular ACE inhibitory assay in renal HK-2 cells; type: cell-based; parameters: endogenous in cells; settings: HK-2 cells treated 24 h at 37 °C with P7 0.1–250 μM; ACE activity in cell lysates, fluorescent Abz substrate; mean ± sd of three independent experiments in triplicate
Experimental: as §1, §2

[4] = target: purified human recombinant DPP-IV enzyme (Homo sapiens, UniProt P27487); settings: read-out: IC50, in vitro on the DPP-IV enzyme; cited from earlier work
Chain of purified human recombinant DPP-IV enzyme (P27487 whole entry): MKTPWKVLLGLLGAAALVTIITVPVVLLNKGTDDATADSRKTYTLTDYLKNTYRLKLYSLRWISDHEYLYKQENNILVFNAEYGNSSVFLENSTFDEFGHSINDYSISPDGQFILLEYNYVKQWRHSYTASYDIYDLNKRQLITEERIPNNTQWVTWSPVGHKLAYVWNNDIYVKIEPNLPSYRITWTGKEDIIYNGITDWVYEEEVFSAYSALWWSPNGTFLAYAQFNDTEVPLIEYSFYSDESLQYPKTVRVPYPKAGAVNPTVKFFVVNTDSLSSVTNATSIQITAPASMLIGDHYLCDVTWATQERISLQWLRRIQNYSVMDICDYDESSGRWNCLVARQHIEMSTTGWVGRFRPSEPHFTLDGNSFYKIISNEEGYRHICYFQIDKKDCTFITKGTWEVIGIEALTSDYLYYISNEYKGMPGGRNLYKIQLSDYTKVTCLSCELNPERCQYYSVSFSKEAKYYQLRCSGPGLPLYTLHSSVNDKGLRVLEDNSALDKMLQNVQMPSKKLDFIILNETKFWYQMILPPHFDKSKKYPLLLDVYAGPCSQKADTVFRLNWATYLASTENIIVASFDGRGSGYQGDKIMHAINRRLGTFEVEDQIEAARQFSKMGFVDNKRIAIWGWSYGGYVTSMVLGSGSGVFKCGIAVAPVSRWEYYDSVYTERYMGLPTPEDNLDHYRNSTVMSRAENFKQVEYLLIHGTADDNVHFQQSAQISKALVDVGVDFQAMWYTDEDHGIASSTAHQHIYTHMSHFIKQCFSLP

T2 sequence (P12821 30-1306): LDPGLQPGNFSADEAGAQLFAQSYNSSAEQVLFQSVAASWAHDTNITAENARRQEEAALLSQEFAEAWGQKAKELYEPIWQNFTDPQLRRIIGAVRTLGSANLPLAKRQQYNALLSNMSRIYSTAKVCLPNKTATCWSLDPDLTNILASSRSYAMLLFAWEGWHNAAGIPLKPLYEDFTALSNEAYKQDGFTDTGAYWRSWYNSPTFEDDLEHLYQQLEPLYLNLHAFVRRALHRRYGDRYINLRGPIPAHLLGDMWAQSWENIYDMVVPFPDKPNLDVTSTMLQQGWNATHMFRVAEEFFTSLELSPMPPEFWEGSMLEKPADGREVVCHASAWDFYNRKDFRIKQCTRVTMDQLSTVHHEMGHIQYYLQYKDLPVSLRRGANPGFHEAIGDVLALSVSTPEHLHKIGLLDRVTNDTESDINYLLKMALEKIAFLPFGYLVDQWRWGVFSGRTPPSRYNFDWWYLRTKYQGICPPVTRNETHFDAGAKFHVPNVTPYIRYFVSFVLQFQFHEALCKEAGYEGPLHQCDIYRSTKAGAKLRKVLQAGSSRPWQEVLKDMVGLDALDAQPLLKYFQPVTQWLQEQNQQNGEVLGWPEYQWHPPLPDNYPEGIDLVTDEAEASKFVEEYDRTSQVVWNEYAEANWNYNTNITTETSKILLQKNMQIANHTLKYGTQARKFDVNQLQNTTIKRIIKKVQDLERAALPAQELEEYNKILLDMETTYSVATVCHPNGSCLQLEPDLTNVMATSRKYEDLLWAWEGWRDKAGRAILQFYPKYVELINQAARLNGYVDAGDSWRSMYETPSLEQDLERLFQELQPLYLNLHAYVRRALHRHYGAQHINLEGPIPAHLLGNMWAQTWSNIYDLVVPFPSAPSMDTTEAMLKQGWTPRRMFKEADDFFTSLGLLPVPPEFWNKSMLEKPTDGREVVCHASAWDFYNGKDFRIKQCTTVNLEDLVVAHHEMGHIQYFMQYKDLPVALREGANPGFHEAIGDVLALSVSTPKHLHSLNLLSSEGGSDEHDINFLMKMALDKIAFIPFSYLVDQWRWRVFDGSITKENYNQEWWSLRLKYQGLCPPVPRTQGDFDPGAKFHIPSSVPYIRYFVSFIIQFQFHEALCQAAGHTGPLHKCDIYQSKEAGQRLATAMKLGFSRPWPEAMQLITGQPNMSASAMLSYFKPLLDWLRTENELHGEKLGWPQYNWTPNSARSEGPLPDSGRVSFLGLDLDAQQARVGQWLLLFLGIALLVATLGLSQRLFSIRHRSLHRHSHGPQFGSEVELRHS

inhibition at 100 µM ([1]; 100 μM) [%] | inhibition at 250 µM ([1]; 250 μM) [%] | IC50 [2] [µM] | IC50 [3] [µM] | Substance | IC50 [4] [µM]
4.7 ± 0.3 | 10.3 ± 0.8 | – | – | LTFPG [LTFPG] | –
– | – | 13.7 | 79.6 | LTFPGSAED [P7] | 228
